Measurements: paper PMC6256112, “Cannabinoid Receptor 2 Signalling Bias Elicited by 2,4,6-Trisubstituted 1,3,5-Triazines” (Frontiers in Pharmacology, 2018)
pEC50: −log10 of the molar value. Where two headings read alike, the source gives them in different places.

How the values were obtained:
[1] = target: T1, hCB2 (Homo sapiens, UniProt P34972); assay: Radioligand competition binding with [3H]-CP 55,940 on hCB2-expressing HEK membranes; details: for hCB2 displacement of [3H]-CP 55,940 in 10 μM screen (in words): 10 μM heterologous competition screen, cut-off 60%; for inhibition at 10 µM: 1 h, 10 μM compound, displacement of 0.5 nM [3H]-CP 55,940, read-out: CB2 binding extent at 10 μM (%) (±SEM); for Reduction in hCB2 binding affinity compared to 15: compared to methylpiperazinyl-15; for Ki: heterologous competition vs [3H]-CP 55,940, read-out: CB2 pKi (±SEM) (converted)
T1 construct: expressed in transfected cells; host or cells: HEK Flp-in
T1 sequence (P34972 whole entry): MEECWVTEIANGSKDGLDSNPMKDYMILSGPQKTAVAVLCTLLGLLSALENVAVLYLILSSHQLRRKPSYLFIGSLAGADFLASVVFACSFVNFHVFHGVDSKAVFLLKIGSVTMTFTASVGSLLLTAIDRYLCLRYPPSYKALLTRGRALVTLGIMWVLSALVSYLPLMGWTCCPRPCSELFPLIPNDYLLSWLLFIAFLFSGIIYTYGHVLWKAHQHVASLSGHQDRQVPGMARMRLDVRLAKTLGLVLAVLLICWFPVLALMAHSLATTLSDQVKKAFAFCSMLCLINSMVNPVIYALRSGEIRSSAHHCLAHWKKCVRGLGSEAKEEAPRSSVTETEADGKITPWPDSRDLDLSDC

[2] = target: T1, hCB2; assay: Comparison of efficacy/potency and operational-model bias analysis between hCB2 pathways, reference CP 55,940; format: cell-based
[3] = target: T2, hCB1 (Homo sapiens, UniProt P21554); assay: Radioligand competition binding screen with [3H]-CP 55,940 on hCB1-expressing HEK membranes; details: for CB1 binding extent at 10 μM (%) (±SEM): 10 μM compound, displacement of 0.75 nM [3H]-CP 55,940; for CB2 selectivity over CB1 (in words): from CB1 binding at 10 μM versus CB2 affinity
T2 construct: expressed in transfected cells; host or cells: HEK (membranes)
T2 sequence (P21554 whole entry): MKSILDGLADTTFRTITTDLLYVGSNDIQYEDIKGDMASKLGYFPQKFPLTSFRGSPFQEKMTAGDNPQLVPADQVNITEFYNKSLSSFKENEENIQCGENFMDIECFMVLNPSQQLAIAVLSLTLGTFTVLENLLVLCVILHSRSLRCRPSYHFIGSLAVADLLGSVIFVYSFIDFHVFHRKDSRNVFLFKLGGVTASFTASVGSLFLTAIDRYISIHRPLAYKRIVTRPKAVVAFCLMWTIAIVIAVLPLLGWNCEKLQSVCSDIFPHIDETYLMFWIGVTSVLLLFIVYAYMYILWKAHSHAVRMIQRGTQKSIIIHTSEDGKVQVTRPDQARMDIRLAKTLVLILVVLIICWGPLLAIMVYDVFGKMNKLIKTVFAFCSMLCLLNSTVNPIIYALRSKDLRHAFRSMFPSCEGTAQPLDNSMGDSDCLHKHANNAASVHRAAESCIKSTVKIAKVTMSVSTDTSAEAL

[4] = system: HEK Flp-in wt cells; assay: CAMYEL cAMP assay in HEK Flp-in wt cells (non-hCB2-mediated effects); format: cell-based, human; details: for Non-hCB2-mediated effects on cAMP (in words): HEK Flp-in wt
[5] = target: T1, hCB2; assay: hCB2 internalisation assay (immunocytochemistry of surface receptor), HEK Flp-in hCB2 cells; format: cell-based
[6] = target: T1, hCB2; assay: pERK AlphaLISA assay, HEK Flp-in hCB2 cells; format: cell-based; details: for EC50: 4 min stimulation, 14 approximate (low potency), read-out: pERK (4 min) pEC50 (±SEM) (converted); for Time of maximal pERK response: time course experiment
[7] = target: T1, hCB2; assay: Real-time CAMYEL BRET cAMP assay, forskolin-stimulated HEK Flp-in hCB2 cells; format: cell-based; details: for EC50: 10 and 14 approximate (non-hCB2-mediated effects), read-out: cAMP (5 min) pEC50 (±SEM) (converted)
Protocol: Cellular cAMP levels were measured using a real-time BRET biosensor (CAMYEL) as previously described ([Cawston et al., 2013]). In brief, cells were seeded in 10 cm dishes one day prior to transfection. The medium was then replaced and cells transfected with 5 μg of pcDNA3L-His-CAMYEL (ATCC, Manassas, VA, United States) using linear PEI (MW 25 kDa; Polysciences, Warrington, PA, United States) with a DNA:PEI ratio of 1:6. Approximately 24 h after transfection, cells were trypsinised and re-plated in poly-D-lysine treated white 96-well plates (Corning), at a density of 5–6 × 10^4 cells per well. For experiments involving pertussis toxin (PTX; Sigma-Aldrich) pre-treatment, cells were seeded in half the usual volume of medium, and then ∼5 h later, 2× concentrated PTX or vehicle (50% glycerol, […] Tris–HCl pH 7.5, 10 mM glycine, 500 mM NaCl) were prepared in medium and added to the existing plating medium (giving rise to a final PTX concentration of 100 ng mL^-1). Approximately 24 h after plating (or 16–20 h after applying PTX/vehicle in experiments involving PTX treatment), cells were washed once with Hank’s Balanced Salt Solution (HBSS, Thermo Fisher Scientific, catalogue #14025-134), and then equilibrated for 30 min in HBSS supplemented with 1 mg mL^-1 BSA. Coelenterazine h (final concentration 5 μM; NanoLight Technologies, Pinetop, AZ, United States) was added to each well and incubated for 5 min. Forskolin was added (final concentration 5 μM) and incubated for 6 min (allowing enough time for the induced cAMP increase to plateau), prior to vehicle/drug addition. All drugs and reagents were prepared in HBSS supplemented with 1 mg mL^-1 BSA. SR 144528 was a generous gift from Roche (Basel, Switzerland).
Assays were carried out in technical duplicate. Emissions were detected at 460 nm (Rluc) and 535 nm (YFP) with either a LUMIstar® Omega luminometer (BMG Labtech, Ortenberg, Germany) or CLARIOstar® (BMG Labtech). BRET ratios (535 nm emissions/460 nm emissions, where an increase in ratio corresponds to a decrease in cAMP) were normalised to pre-forskolin reads (i.e., with coelenterazine h present) to remove any variability present prior to addition of forskolin and drug/vehicle. A Lowess curve (GraphPad Prism) was fitted to individual technical replicates within an assay so that cAMP signalling data could be extrapolated from any time point as opposed to only those that were empirically measured (typically every 30–60 s). Data were normalised to matched vehicle (0%) and forskolin (100%) treatments, allowing compilation of data from independent experiments.

[8] = 10^ΔΔlogR, relative to CP 55,940
[9] = relative to reference ligand CP 55,940
[10] = operational model transduction ratio
[11] = 5 min post-drug, 5 μM forskolin

Row | Compound | hCB2 displacement of [3H]-CP 55,940 in 10 μM screen (in words) [1] | inhibition at 10 µM [1] [%] | CB1 binding extent at 10 μM (%) (±SEM) [3] | CB2 selectivity over CB1 (in words) [3] | Reduction in hCB2 binding affinity compared to 15 [1] | Ki [1] [nM] | Behaviour in pERK pathway (in words) ([6]; 4 min) | EC50 [6] [nM] | Time of maximal pERK response [6] [min] | Behaviour in cAMP pathway (in words) ([7]; 5 μM forskolin) | EC50 [7, 11] [nM] | Non-hCB2-mediated effects on cAMP (in words) [4] | also measured
1 | CCOc1nc(NC23CC4CC(CC(C4)C2)C3)nc(N2CCN(CCCCCCNC(=O)OC(C)(C)C)CC2)n1 [Compound 9, tert-Butyl N-(6(4-(4-(Adamantan-1-yl)Amino)-6-Ethoxy-1,3,5-Triazin-2-yl)Piperazin-1-yl)Hexyl) Carbamate] | moderate binders | 51.9 |  |  |  |  |  |  |  |  |  |  | 
2 | CCOc1nc(NC23CC4CC(CC(C4)C2)C3)nc(N2CCN(CCOCCOCCNC(=O)OC(C)(C)C)CC2)n1 [Compound 10, tert-Butyl N-(2-(2-(2-(4-(4-((Adamantan-1-yl)Amino)-6-Ethoxy-1,3,5-Triazin-2-yl)Piperazin-1-yl)Ethoxy) Ethoxy)Ethyl)Carbamate] |  | 91.8 | 16.7 (7.8) % | likely also CB2-selective | 2–3 log units | 661 | equivalent efficacies to CP 55,940 | 1070 | 4 | partial agonists | 105 |  | Internalisation – pERK Bias factor [2, 8]: 2.0; cAMP – internalisation Bias factor [2, 8]: 1.2; cAMP – pERK Bias factor [2, 8]: 2.4; Between-pathway signalling bias (in words) ([2]; relative to CP 55,940): did not demonstrate any indication of between-pathway bias; Internalisation – pERK ΔΔlogR (±SEM) [2, 9]: 0.31 (0.13); cAMP – internalisation ΔΔlogR (±SEM) [2, 9]: 0.07 (0.16); cAMP – pERK ΔΔlogR (±SEM) [2, 9]: 0.37 (0.10); Non-hCB2-mediated cAMP effects: fold less potent than cAMP inhibition in hCB2-expressing cells ([4]; HEK Flp-in wt versus HEK Flp-in hCB2): ~23 fold; pEC50 ([5]; 1 h stimulation): 7.05; logR [log(τ/KA)] (±SEM) Internalisation [5, 10]: 7.09 (0.10); Emax ([6]; 4 min, response above vehicle, normalised to U0126 (0%) and PMA (100%), for 14 efficacy at 10 μM, read-out: pERK (4 min) Emax (±SEM)): 10.2%; logR [log(τ/KA)] (±SEM) pERK [6, 10]: 6.06 (0.02); cAMP (5 min) Emax (±SEM) ([7]; 5 min post-drug, 5 μM forskolin, change relative to forskolin alone (100%), vehicle 0%, 10 and 14 approximate): –33.0 (0.9)^Δ %; logR [log(τ/KA)] (±SEM) cAMP [7, 10]: 6.90 (0.10)
3 | CCOc1nc(NC23CC4CC(CC(C4)C2)C3)nc(N2CCN(CCN)CC2)n1 [Compound 11, N-(Adamantan-1-yl)-4-(4-(2-Aminoethyl)Piperazin-1-yl)-6-Ethoxy-1,3,5-Triazin-2-Amine] | moderate binders | 40.1 |  |  |  |  |  |  |  |  |  |  | 
4 | CCOc1nc(NC23CC4CC(CC(C4)C2)C3)nc(N2CCN(CCCCCCN)CC2)n1 [Compound 12, N-(Adamantan-1-yl)-4-(4-(6-Aminohexyl)Piperazin-1-yl)-6-Ethoxy-1,3,5-Triazin-2-Amine] | moderate binders | 43.5 |  |  |  |  |  |  |  |  |  |  | 
5 | CCOc1nc(NC23CC4CC(CC(C4)C2)C3)nc(N2CCN(CCOCCOCCN)CC2)n1 [Compound 13, N-(Adamantan-1-yl)-4-(4-(2-(2-(2-Aminoethoxy) Ethoxy)Ethyl)Piperazin-1-yl)-6-Ethoxy-1,3,5-Triazin-2-Amine] |  | 81.1 | 29.6 (7.6) % | likely also CB2-selective | 2–3 log units | 1820 | weak partial agonists | 537 | 4 | unconventional transient inverse agonist | 794 | did not exhibit any measurable non-hCB2-mediated effects | Behaviour in internalisation pathway (in words) ([5]; 1 h stimulation): neutral antagonist; Internalisation (1 h) pEC50 (±SEM) ([5]; 1 h stimulation): Not Measurable; Emax at 10 µM ([5]; read-out: Internalisation (1 h) Emax (±SEM), 1 h stimulation, change in surface hCB2 relative to vehicle-treated (100%), for 13 efficacy at 10 μM): 6.2%; Time to maximum cAMP effect after drug addition ([7]; 5 μM forskolin): ~4 min; Time to return to cAMP concentration induced by forskolin alone ([7]; 5 μM forskolin): 10 to 15 min; PTX sensitivity of cAMP signal (in words) ([7]; PTX 100 ng mL-1 pre-treatment 16–20 h): completely PTX-sensitive
6 | SR 144528 [reference compound] |  |  |  |  |  |  |  |  |  |  |  | did not exhibit any measurable non-hCB2-mediated effects | PTX sensitivity of cAMP signal (in words) [7]: PTX-sensitive; Time to maximum cAMP effect after drug addition [7]: approximately 6 min; cAMP (5 min) Emax (±SEM) [7]: 55.4%
